# According to paper PMC10025480 (Frontiers in Pharmacology, 2023):
# What was measured:
# [1] = test system: human bronchial smooth muscle; details: cited from earlier work
# [2] = biological target: T1, hTMEM16Aacd (Homo sapiens, UniProt Q5XXA6); assay: Whole-cell patch clamp (QPatch), HEK-hTMEM16Aacd cells; type: cell-based
# T1 construct: expressed in transfected cells; host or cells: HEK cells
# T1 sequence (Q5XXA6 1-986): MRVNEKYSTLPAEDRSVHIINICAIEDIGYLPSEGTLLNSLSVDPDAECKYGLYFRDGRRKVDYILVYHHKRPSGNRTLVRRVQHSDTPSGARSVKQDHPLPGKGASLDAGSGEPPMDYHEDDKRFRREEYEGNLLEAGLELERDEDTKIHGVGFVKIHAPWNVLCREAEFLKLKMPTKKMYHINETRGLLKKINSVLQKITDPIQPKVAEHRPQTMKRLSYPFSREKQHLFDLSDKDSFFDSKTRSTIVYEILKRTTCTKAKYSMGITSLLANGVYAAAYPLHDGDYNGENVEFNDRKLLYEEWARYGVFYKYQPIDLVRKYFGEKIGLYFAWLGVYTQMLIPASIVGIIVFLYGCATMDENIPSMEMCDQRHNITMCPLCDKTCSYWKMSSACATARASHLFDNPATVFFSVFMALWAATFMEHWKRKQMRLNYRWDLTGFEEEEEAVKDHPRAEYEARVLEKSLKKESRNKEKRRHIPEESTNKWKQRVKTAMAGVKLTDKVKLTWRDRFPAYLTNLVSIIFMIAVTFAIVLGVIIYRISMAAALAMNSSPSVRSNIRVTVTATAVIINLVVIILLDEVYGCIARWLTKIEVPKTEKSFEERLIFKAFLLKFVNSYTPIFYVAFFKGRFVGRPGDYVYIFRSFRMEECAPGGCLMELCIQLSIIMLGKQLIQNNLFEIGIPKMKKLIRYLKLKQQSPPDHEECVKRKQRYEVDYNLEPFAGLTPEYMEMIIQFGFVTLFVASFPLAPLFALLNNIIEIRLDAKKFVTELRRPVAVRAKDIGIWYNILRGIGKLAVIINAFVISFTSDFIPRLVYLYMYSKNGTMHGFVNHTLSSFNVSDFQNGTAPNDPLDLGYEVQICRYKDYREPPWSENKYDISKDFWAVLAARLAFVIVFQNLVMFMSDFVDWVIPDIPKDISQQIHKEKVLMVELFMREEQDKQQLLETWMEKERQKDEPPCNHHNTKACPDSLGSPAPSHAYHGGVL
# Procedure: Whole-cell voltage-clamp recordings from FRT-hTMEM16Aabc, HEK-hTMEM16Aacd, and HEK293 cells were made using the QPatch planar patch clamp system as described previously ([Bill et al., 2015]; [Danahay et al, 2020a]). TMEM16A currents were assessed using chloride selective solutions with calculated free [Ca^2+]i tightly buffered at either 415 or 0 nM. Current rectification ratios were calculated by dividing the magnitude of the outward current at +90 mV by the magnitude of the inward current at −90 mV.
# [3] = biological target: T2, hTMEM16Aabc (Homo sapiens, UniProt Q5XXA6, DEL476-501); assay: Short-circuit current (ISC), FRT-TMEM16Aabc monolayers in Ussing chambers; type: cell-based; details: for UTP-stimulated integrated ISC response (AUC) / UTP-stimulated peak increase in ISC: 5 min pre-treatment, apical, UTP 10 µM, concentration-dependent
# T2 construct: expressed in transfected cells
# T2 sequence (Q5XXA6 with tags, fused parts or gaps isoform Q5XXA6-5 DEL539-564): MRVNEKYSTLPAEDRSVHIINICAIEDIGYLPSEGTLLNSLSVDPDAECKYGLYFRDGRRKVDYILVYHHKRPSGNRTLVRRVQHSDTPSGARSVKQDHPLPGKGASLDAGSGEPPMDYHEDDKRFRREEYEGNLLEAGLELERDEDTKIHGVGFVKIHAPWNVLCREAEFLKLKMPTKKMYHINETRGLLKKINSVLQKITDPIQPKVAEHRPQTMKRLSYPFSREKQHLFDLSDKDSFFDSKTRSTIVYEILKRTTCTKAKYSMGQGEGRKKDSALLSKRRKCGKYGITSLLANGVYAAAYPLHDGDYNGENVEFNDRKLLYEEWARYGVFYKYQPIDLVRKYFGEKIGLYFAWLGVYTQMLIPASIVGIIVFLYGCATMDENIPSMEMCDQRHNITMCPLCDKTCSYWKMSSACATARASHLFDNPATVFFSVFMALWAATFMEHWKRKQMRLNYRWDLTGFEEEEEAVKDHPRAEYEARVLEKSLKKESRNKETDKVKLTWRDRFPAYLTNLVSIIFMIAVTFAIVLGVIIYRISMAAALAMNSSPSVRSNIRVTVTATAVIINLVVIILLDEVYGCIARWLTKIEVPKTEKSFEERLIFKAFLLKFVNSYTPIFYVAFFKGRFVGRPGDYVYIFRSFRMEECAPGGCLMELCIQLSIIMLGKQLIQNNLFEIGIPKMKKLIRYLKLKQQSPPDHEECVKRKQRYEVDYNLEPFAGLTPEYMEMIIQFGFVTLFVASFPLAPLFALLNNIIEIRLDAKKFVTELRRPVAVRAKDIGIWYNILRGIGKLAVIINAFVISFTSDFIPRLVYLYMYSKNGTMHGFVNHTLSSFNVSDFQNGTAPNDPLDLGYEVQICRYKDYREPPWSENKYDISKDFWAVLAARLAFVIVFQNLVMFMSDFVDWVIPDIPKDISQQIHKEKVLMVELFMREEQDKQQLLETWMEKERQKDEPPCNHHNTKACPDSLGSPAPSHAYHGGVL
# Procedure: FRT-hTMEM16Aabc cells were mounted in Ussing chambers in asymmetrical Ringers solutions. The basolateral Ringers contained (in mM): 120 NaCl, 25 NaHCO3, 3.3 KH2PO4, 0.8 K2HPO4, 1.2 CaCl2, 1.2 MgCl2, and 10 glucose. In the apical Ringers solution, NaCl was reduced to 80 mM and 40 mM sodium gluconate was included to establish a Cl^− gradient. The solution osmolarity was between 280 and 300 mosmol kg H2O^−1 and was continuously gassed (5% CO2 in O2; pH 7.4) and maintained at 37°C. Cells were voltage clamped to 0 mV (model EVC4000; WPI) and the short-circuit current (ISC) was measured. Data were recorded using a PowerLab workstation and LabChart software (ADInstruments, Abingdon, Oxon, United Kingdom). TMEM16A blockers were added to the apical side of the epithelium for 5 min before the addition of UTP, that was used to stimulate a TMEM16A-mediated chloride secretory responses.
# [4] = test system: HEK293 cells; assay: Whole-cell patch clamp (QPatch), parental HEK cells lacking TMEM16A; type: cell-based; details: compared with HEK-TMEM16Aacd cells at 0 nM [Ca2+]i
# Procedure: Current rectification ratios were calculated by dividing the magnitude of the outward current at +90 mV by the magnitude of the inward current at −90 mV.
# [5] = design: method as in Papp et al., 2019; details: PAH patients; ref Papp et al., 2019; cited from earlier work
smiles,measurement,setting,value
O=C(Nc1ccc([N+](=O)[O-])cc1Cl)c1cc(Cl)ccc1O [niclosamide],relaxation of human bronchial smooth muscle,"[1]; ref Danahay et al., 2020b",confirmed
same,effect on freshly isolated human bronchial smooth muscle,"[1]; ref Miner et al., 2019",relax
same,effect on TMEM16Aacd currents,"[2]; HEK cells, [Ca2+]i clamped at 415 nM, bell shaped concentration response",enhancement of currents at low µM
same,EC50,"[2]; HEK-TMEM16Aacd cells, [Ca2+]i clamped to 0 nM (TMEM16A not activated), read-out: EC50, concentration-dependent increase in current",2700 ± 300 nM
same,reversal potential of induced current,[2]; [Ca2+]i clamped to 0 nM,approximately −50 mV
same,transient increase in ISC on addition,"[3]; 10 µM, vehicle 0.0 ± 0.1",4.4 ± 0.3 µAcm^-2
same,subsequent attenuation of the baseline current,"[3]; 10 µM, vehicle −0.3 ± 0.1",−6.7 ± 0.7 µAcm^-2
same,UTP-stimulated integrated ISC response (AUC),[3],attenuated
same,UTP-stimulated peak increase in ISC,[3],attenuated
same,effect on currents in parental HEK cell line,[4],Quantitatively similar effects
CCc1oc2ccccc2c1C(=O)c1cc(Br)c(O)c(Br)c1 [benzbromarone],pulmonary artery pressure,[5],paradoxical increase
same,effect on baseline ISC prior to UTP,[3],without effect
same,UTP-stimulated integrated ISC response (AUC),[3],attenuated
same,UTP-stimulated peak increase in ISC,[3],attenuated
